Measurements taken from ChEMBL document CHEMBL1154382, “Preliminary SAR analysis of novel antiproliferative N(6),5'-bis-ureidoadenosine derivatives” (2009).

Legend:
Format in all cases: functional
CCRF-CEM = assay: Antiproliferative activity against human CCRF-CEM cells
HL-60(TB) = assay: Antiproliferative activity against human HL-60(TB) cells
K562 = assay: Antiproliferative activity against human K562 cells
MOLT-4 = assay: Antiproliferative activity against human MOLT4 cells
[1] = Antiproliferative activity against human […] cells
A549 = assay: Antiproliferative activity against human A549 cells
EKVX = assay: Antiproliferative activity against human EKVX cells
HOP-62 = assay: Antiproliferative activity against human HOP62 cells
HOP-92 = assay: Antiproliferative activity against human HOP92 cells
NCI-H226 = assay: Antiproliferative activity against human NCI-H226 cells
NCI-H23 = assay: Antiproliferative activity against human NCI-H23 cells
NCI-H322M = assay: Antiproliferative activity against human NCI-H322M cells
NCI-H460 = assay: Antiproliferative activity against human NCI-H460 cells
NCI-H522 = assay: Antiproliferative activity against human NCI-H522 cells
COLO 205 = assay: Antiproliferative activity against human COLO205 cells
HCC 2998 = assay: Antiproliferative activity against human HCC2998 cells
HCT-116 = assay: Antiproliferative activity against human HCT116 cells
HCT-15 = assay: Antiproliferative activity against human HCT15 cells
HT-29 = assay: Antiproliferative activity against human HT-29 cells
KM12 = assay: Antiproliferative activity against human KM12 cells
SW-620 = assay: Antiproliferative activity against human SW620 cells
LOX IMVI = assay: Antiproliferative activity against human LOXIMVI cells
Malme-3M = assay: Antiproliferative activity against human MALME-3M cells
M14 = assay: Antiproliferative activity against human M14 cells
SK-MEL-2 = assay: Antiproliferative activity against human SK-MEL-2 cells
SK-MEL-28 = assay: Antiproliferative activity against human SK-MEL-28 cells
SK-MEL-5 = assay: Antiproliferative activity against human SK-MEL-5 cells
UACC-257 = assay: Antiproliferative activity against human UACC257 cells
UACC-62 = assay: Antiproliferative activity against human UACC62 cells
SF-268 = assay: Antiproliferative activity against human SF268 cells
SF-295 = assay: Antiproliferative activity against human SF295 cells
SF-539 = assay: Antiproliferative activity against human SF539 cells
SNB-19 = assay: Antiproliferative activity against human SNB19 cells
SNB-75 = assay: Antiproliferative activity against human SNB75 cells
U-251 = assay: Antiproliferative activity against human U251 cells
IGROV-1 = assay: Antiproliferative activity against human IGROV1 cells
OVCAR-3 = assay: Antiproliferative activity against human OVCAR-3 cells
OVCAR-4 = assay: Antiproliferative activity against human OVCAR4 cells
OVCAR-5 = assay: Antiproliferative activity against human OVCAR5 cells
OVCAR-8 = assay: Antiproliferative activity against human OVCAR8 cells
SK-OV-3 = assay: Antiproliferative activity against human SKOV3 cells
786-0 = assay: Antiproliferative activity against human 786-0 cells
A498 = assay: Antiproliferative activity against human A498 cells
ACHN = assay: Antiproliferative activity against human ACHN cells
CAKI-1 = assay: Antiproliferative activity against human Caki1 cells
RXF 393 = assay: Antiproliferative activity against human RXF393 cells
SN12C = assay: Antiproliferative activity against human SN12C cells
TK-10 = assay: Antiproliferative activity against human TK10 cells
UO-31 = assay: Antiproliferative activity against human UO31 cells
BT-549 = assay: Antiproliferative activity against human BT549 cells
[2] = Antiproliferative activity against human Hs 578T cells
MCF7 = assay: Antiproliferative activity against human MCF7 cells
MDA-MB-231 = assay: Antiproliferative activity against human MDA-MB-231 cells
MDA-MB-435 = assay: Antiproliferative activity against human MDA-MB-435 cells
T47D = assay: Antiproliferative activity against human T47D cells
DU-145 = assay: Antiproliferative activity against human DU145 cells
SR = assay: Antiproliferative activity against human SR cells

## CNC(=O)NC[C@H]1O[C@@H](n2cnc3c(NC(=O)Nc4ccccc4)ncnc32)[C@H](O[Si](C)(C)C(C)(C)C)[C@@H]1CC(=O)N(C)OC
CCRF-CEM
  GI50: 6.37 µM
HL-60(TB)
  GI50: 0.00181 µM
K562
  GI50: 3.12 µM
MOLT-4
  GI50: 2.23 µM
[1]
  GI50: 1.58 µM
A549
  GI50: 9.35 µM
EKVX
  GI50: 26.4 µM
HOP-62
  GI50: 24.9 µM
HOP-92
  GI50: 2.71 µM
NCI-H226
  GI50: 41.9 µM
NCI-H23
  GI50: 57.2 µM
NCI-H322M
  GI50: > 100 µM
NCI-H460
  GI50: 7.49 µM
NCI-H522
  GI50: 11.1 µM
COLO 205
  GI50: 12.3 µM
HCC 2998
  GI50: 30.6 µM
HCT-116
  GI50: 4.2 µM
HCT-15
  GI50: 6.47 µM
HT-29
  GI50: 5.37 µM
KM12
  GI50: 23.9 µM
SW-620
  GI50: > 100 µM
LOX IMVI
  GI50: 7.3 µM
Malme-3M
  GI50: 11.4 µM
M14
  GI50: 15.2 µM
SK-MEL-2
  GI50: 14.9 µM
SK-MEL-28
  GI50: 7.77 µM
SK-MEL-5
  GI50: 5.81 µM
UACC-257
  GI50: 22.6 µM
UACC-62
  GI50: 41.9 µM
SF-268
  GI50: 8.29 µM
SF-295
  GI50: 9.09 µM
SF-539
  GI50: 22.3 µM
SNB-19
  GI50: > 100 µM
SNB-75
  GI50: 12.7 µM
U-251
  GI50: 5.66 µM
IGROV-1
  GI50: 3.72 µM
OVCAR-3
  GI50: 7.11 µM
OVCAR-4
  GI50: 53 µM
OVCAR-5
  GI50: 38.2 µM
OVCAR-8
  GI50: 9.02 µM
SK-OV-3
  GI50: 52.7 µM
786-0
  GI50: 9.01 µM
A498
  GI50: 3.87 µM
ACHN
  GI50: 14.4 µM
CAKI-1
  GI50: 53.8 µM
RXF 393
  GI50: 9.74 µM
SN12C
  GI50: 85.3 µM
TK-10
  GI50: 20.5 µM
UO-31
  GI50: 7.79 µM
BT-549
  GI50: 29 µM
[2]
  GI50: 5.79 µM
MCF7
  GI50: 5.59 µM
MDA-MB-231
  GI50: 12.3 µM
MDA-MB-435
  GI50: 10.9 µM
T47D
  GI50: 13.9 µM
DU-145
  GI50: 16.6 µM
SR
  GI50: 1.27 µM
